This note sets out measurements from patent publication US20230183218A1, “CONDENSED SUBSTITUTED HYDROPYRROLES AS ANTAGONISTS OF THE MUSCARINIC ACETYLCHOLINE RECEPTOR M4” (Vanderbilt University, priority 2020, published 2023).

Usually IC50 stands for the concentration at which inhibition is half-maximal.

One experiment addresses T1, Rat M4 (Rattus norvegicus, UniProt P08485).
T1 construct: expressed in transfected cells; host or cells: CHO-K1 (ATCC), stably co-expressing chimeric G protein Gqi5
T1 sequence (P08485 1-478): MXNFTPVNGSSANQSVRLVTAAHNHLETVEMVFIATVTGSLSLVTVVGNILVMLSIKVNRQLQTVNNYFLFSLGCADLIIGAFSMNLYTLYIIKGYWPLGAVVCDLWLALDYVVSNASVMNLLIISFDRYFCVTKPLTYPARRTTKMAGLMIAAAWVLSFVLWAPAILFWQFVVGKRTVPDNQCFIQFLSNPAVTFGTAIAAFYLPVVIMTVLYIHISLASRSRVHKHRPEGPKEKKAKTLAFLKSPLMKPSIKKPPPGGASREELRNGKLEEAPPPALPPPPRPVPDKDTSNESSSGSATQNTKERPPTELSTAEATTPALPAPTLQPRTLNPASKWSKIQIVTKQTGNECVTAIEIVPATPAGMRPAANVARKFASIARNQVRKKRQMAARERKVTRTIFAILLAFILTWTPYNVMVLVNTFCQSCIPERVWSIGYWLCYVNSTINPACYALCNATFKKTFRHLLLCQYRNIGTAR
Description: mAChR M4 cell-based functional assay (calcium flux, antagonist mode vs EC80 acetylcholine), rat M4/Gqi5/CHO-K1 cells. The following applies: for remaining activity at 30 µM: CHO-K1, % ACh maximum at 30 μM, rat M4, read-out: Rat M4 Emin (%); for IC50: decrease of response elicited by EC80 acetylcholine, rat M4/Gqi5 CHO-K1 cells. The procedure: (§1) Human or rat M4 cDNA, along with the chimeric G protein Gqi5, were transfected into Chinese hamster ovary (CHO-K1) cells purchased from the American Type Culture Collection using Lipofectamine2000. M4/Gqi5/CHO cells were grown in Ham's F-12 medium containing 10% heat-inactivated fetal bovine serum (FBS), 20 mM HEPES, 500 μg/mL G418 sulfate, and 200 μg/mL Hygromycin B.
(§2) For high throughput measurement of agonist-evoked increases in intracellular calcium, CHO-K1 cells stably expressing muscarinic receptors were plated in growth medium lacking G418 and hygromycin at 15,000 cells/20 μL/well in Greiner 384-well black-walled, tissue culture (TC)-treated, clear-bottom plates (VWR). Cells were incubated overnight at 37° C. and 5% CO2. The next day, cells were washed using an ELX 405 (BioTek) with assay buffer; the final volume was then aspirated to 20 μL. Next, 20 μL of a 2.3 μM stock of Fluo-4/acetoxymethyl ester (Invitrogen, Carlsbad, Calif.), prepared as a 2.3 mM stock in DMSO and mixed in a 1:1 ratio with 10% (w/v) Pluronic F-127 and diluted in assay buffer, was added to the wells and the cell plates were incubated for 50 min at 37° C. and 5% CO2. Dye was removed by washing with the ELX 405 and the final volume was aspirated to 20 μL. Compound master plates were formatted in a 10 point concentration-response curve (CRC) format (1:3 dilutions) in 100% DMSO with a starting concentration of 10 or 1 mM using a BRAVO liquid handler (Agilent). Test compound CRCs were then transferred to daughter plates (240 nL) using the Echo acoustic plate reformatter (Labcyte, Sunnyvale, Calif.) and then diluted into assay buffer (40 μL) to a 2× stock using a Thermo Fisher Combi (Thermo Fisher Scientific, Waltham, Mass.).
(§3) Calcium flux was measured using the Functional Drug Screening System (FDSS) 6000 or 7000 (Hamamatsu Corporation, Tokyo, Japan) as an increase in the fluorescent static ratio. Compounds were applied to cells (20 μL, 2×) using the automated system of the FDSS at 2 seconds into the protocol and the data were collected at 1 Hz. At 143 s, 10 μL of an EC20 concentration of the muscarinic receptor agonist acetylcholine was added (5×), followed by the addition of 12 μL of an EC80 concentration of acetylcholine at the 268 s time point (5×). Agonist activity was analyzed as a concentration-dependent increase in calcium mobilization upon compound addition. Positive allosteric modulator activity was analyzed as a concentration-dependent increase in the EC20 acetylcholine response. Antagonist activity was analyzed as a concentration-dependent decrease in the EC80 acetylcholine response; for the purposes of the tables herein, an IC50 (inhibitory concentration 50) was calculated as a concentration-dependent decrease of the response elicited by an EC80 concentration of acetylcholine. Concentration-response curves were generated using a four-parameter logistical equation in XLFit curve fitting software (IDBS, Bridgewater, N.J.) for Excel (Microsoft, Redmond, Wash.) or Prism (GraphPad Software, Inc., San Diego, Calif.) or the Dotmatics software platform (Dotmatics, Bishop's Stortford, UK).
(§4) Compounds were synthesized as described above. Activity (IC50 and Emin) was determined in the mAChR M4 cell-based functional assay as described above and the data are shown in Table 2.
For orientation: Calcium flux is commonly read through the fluorescence of an indicator in the cells.

The target of another experiment is T2, Human M4 (Homo sapiens, UniProt P08173).
T2 construct: expressed in transfected cells; host or cells: CHO-K1 (ATCC), stably co-expressing chimeric G protein Gqi5
T2 sequence (P08173 1-479): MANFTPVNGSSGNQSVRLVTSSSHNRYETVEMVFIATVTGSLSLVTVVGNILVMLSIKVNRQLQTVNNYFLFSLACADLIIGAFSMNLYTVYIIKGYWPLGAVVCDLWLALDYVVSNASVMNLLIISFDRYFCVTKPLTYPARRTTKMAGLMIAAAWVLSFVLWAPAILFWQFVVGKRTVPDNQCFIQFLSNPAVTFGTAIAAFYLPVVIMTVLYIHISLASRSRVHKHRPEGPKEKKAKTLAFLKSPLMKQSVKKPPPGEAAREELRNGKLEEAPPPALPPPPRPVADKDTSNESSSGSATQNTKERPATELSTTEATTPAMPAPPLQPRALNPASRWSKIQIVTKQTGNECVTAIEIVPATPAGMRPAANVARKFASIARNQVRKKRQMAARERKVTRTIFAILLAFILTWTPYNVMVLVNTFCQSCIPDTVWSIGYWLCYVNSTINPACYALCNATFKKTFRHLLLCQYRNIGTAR
Description: mAChR M4 cell-based functional assay (calcium flux, antagonist mode vs EC80 acetylcholine), human M4/Gqi5/CHO-K1 cells. The following applies: for remaining activity at 30 µM: CHO-K1, % ACh maximum at 30 μM, human M4, read-out: Human M4 Emin (%); for IC50: decrease of response elicited by EC80 acetylcholine, human M4/Gqi5 CHO-K1 cells. On the procedure: as §1, §2, §3, §4

Take `COCCCN1C[C@H]2C[C@H](Nc3ccc(-c4cc(F)ccc4Cl)nn3)C[C@H]2C1` [compound 1, (3aR,5s,6aS)-N-(6-(2-chloro-5-fluorophenyl)pyridazin-3-yl)-2-(3-methoxypropyl)octahydrocyclopenta[c]pyrrol-5-amine]: on Rat M4, the remaining activity at 30 µM was 5% and the IC50 came out at 740 nM. Also, at Human M4, the remaining activity at 30 µM worked out at 4% and the IC50 stood at 42.2 nM.

With `Cc1nn(C)cc1-c1ccc(N[C@H]2C[C@@H]3CN(C4CCOC(C)(C)C4)C[C@@H]3C2)nn1` (stereo partly drawn) [compound 22, (3aR,5s,6aS)-N-(6-(1,3-dimethyl-1H-pyrazol-4-yl)pyridazin-3-yl)-2-(2,2-dimethyltetrahydro-2H-pyran-4-yl)octahydrocyclopenta[c]pyrrol-5-amine], at Rat M4, the remaining activity at 30 µM turned out to be 11% and the IC50 was 6390 nM. For the same molecule, at Human M4, the remaining activity at 30 µM was determined as 6% and the IC50 stood at 4.52 nM.

`CCCN1C(=O)C(C)(C)c2cc(N[C@H]3C[C@@H]4CN(CCC(C)(C)C)C[C@@H]4C3)nnc21` [compound 72, 3-(((3aR,5s,6aS)-2-(3,3-dimethylbutyl)octahydrocyclopenta[c]pyrrol-5-yl)amino)-5,5-dimethyl-7-propyl-5,7-dihydro-6H-pyrrolo[2,3-c]pyridazin-6-one]: on Rat M4, the remaining activity at 30 µM came to 4% and the IC50 is 217 nM. In addition, at Human M4, the remaining activity at 30 µM amounted to 4% and the IC50 is 10.5 nM.

Take `O=C(Nc1cc(F)ccc1Cl)c1ccc(N[C@H]2C[C@@H]3CN(CC4CCOCC4)C[C@@H]3C2)nn1` [compound 11, N-(2-chloro-5-fluorophenyl)-6-(((3aR,5s,6aS)-2-((tetrahydro-2H-pyran-4-yl)methyl)octahydrocyclopenta[c]pyrrol-5-yl)amino)pyridazine-3-carboxamide]: at Rat M4, the remaining activity at 30 µM worked out at 29% and the IC50 was more than 10000 nM. Besides, on Human M4, the remaining activity at 30 µM is 4% and the IC50 came to 2060 nM.

As for `CC1(C)C(=O)N(C2CC2)c2nnc(N[C@H]3C[C@@H]4CN(CC5CCOCC5)C[C@@H]4C3)cc21` [compound 70, 7-cyclopropyl-5,5-dimethyl-3-(((3aR,5s,6aS)-2-((tetrahydro-2H-pyran-4-yl)methyl)octahydrocyclopenta[c]pyrrol-5-yl)amino)-5,7-dihydro-6H-pyrrolo [2,3-c]pyridazin-6-one], at Rat M4, the remaining activity at 30 µM was found to be 13% and the IC50 is 3970 nM. For the same molecule, at Human M4, the remaining activity at 30 µM was found to be 4% and the IC50 was 12.8 nM.

As for `Cn1cc2cc(-c3ccc(N[C@H]4C[C@@H]5CN(C6CCOCC6)C[C@@H]5C4)nn3)ccc2n1` [compound 62, (3aR,5s,6aS)-N-(6-(2-methyl-2H-indazol-5-yl)pyridazin-3-yl)-2-(tetrahydro-2H-pyran-4-yl)octahydrocyclopenta[c]pyrrol-5-amine], on Rat M4, the remaining activity at 30 µM was determined as 11% and the IC50 was 2130 nM. Besides, on Human M4, the remaining activity at 30 µM worked out at 9% and the IC50 was determined as 1730 nM.

Turning to `O=S(=O)(c1ccc(N[C@H]2C[C@@H]3CN(Cc4ccc5c(c4)OCO5)C[C@@H]3C2)nn1)C1CCCCC1` [compound 37, (3aR,5s,6aS)-2-(benzo[d][1,3]dioxol-5-ylmethyl)-N-(6-(cyclohexylsulfonyl)pyridazin-3-yl)octahydrocyclopenta[c]pyrrol-5-amine], on Rat M4, the remaining activity at 30 µM came to 4% and the IC50 worked out at 160 nM. On Human M4, the remaining activity at 30 µM amounted to 4% and the IC50 worked out at 3.84 nM.

Consider `Cc1cc2c(cc1CN1C[C@H]3C[C@H](Nc4ccc(S(=O)(=O)C5CCCCC5)nn4)C[C@H]3C1)OCO2` [compound 44, (3aR,5s,6aS)-N-(6-(cyclohexylsulfonyl)pyridazin-3-yl)-2-((6-methylbenzo[d][1,3]dioxol-5-yl)methyl)octahydrocyclopenta[c]pyrrol-5-amine], for which, on Rat M4, the remaining activity at 30 µM stood at 6% and the IC50 amounted to 2050 nM. In addition, at Human M4, the remaining activity at 30 µM was found to be 3% and the IC50 amounted to 720 nM.

As for `Fc1ccc(Cl)c(-c2ccc(N[C@H]3C[C@@H]4CN(C5Cc6ccccc6C5)C[C@@H]4C3)nn2)c1` [compound 76, (3aR,5s,6aS)-N-(6-(2-chloro-5-fluorophenyl)pyridazin-3-yl)-2-(2,3-dihydro-1H-inden-2-yl)octahydrocyclopenta[c]pyrrol-5-amine], the remaining activity at 30 µM at Rat M4 was found to be 4%; at Human M4 it was 3%. For the same molecule, the IC50 turned out to be 350 nM on Rat M4 and 189 nM at Human M4.

As for `Fc1ccc(Cl)c(-c2ccc(N[C@H]3C[C@@H]4CN(C5(C6CCOCC6)CC5)C[C@@H]4C3)nn2)c1` [compound 64, (3aR,5s,6aS)-N-(6-(2-chloro-5-fluorophenyl)pyridazin-3-yl)-2-(1-(tetrahydro-2H-pyran-4-yl)cyclopropyl)octahydrocyclopenta[c]pyrrol-5-amine], at Rat M4, the remaining activity at 30 µM is 32% and the half-maximal inhibitory concentration (IC50) is more than 10000 nM. Besides, at Human M4, the remaining activity at 30 µM came out at 4% and the IC50 stood at 161 nM.

Consider `Cc1cc(CN2C[C@H]3C[C@H](Nc4ccc(S(=O)(=O)C5CCCCC5)nn4)C[C@H]3C2)ccc1F` [compound 38, (3aR,5s,6aS)-N-(6-(cyclohexylsulfonyl)pyridazin-3-yl)-2-(4-fluoro-3-methylbenzyl)octahydrocyclopenta[c]pyrrol-5-amine], for which, on Rat M4, the remaining activity at 30 µM came to 3% and the IC50 worked out at 591 nM. Moreover, on Human M4, the remaining activity at 30 µM was 4% and the IC50 was 188 nM.

For the molecule `Cc1cccnc1CN1C[C@H]2C[C@H](Nc3ccc(S(=O)(=O)c4ccccc4)nn3)C[C@H]2C1` [compound 40, (3aR,5s,6aS)-2-((3-methylpyridin-2-yl)methyl)-N-(6-(phenylsulfonyl)pyridazin-3-yl)octahydrocyclopenta[c]pyrrol-5-amine], the results for the remaining activity at 30 µM at Rat M4 and on Human M4 were 15% and 5%, respectively. In addition, the IC50 on Rat M4 is 2890 nM; on Human M4, 221 nM.
